{"source": "the supplement of paper PMC13386468", "assay_in_all_cases": "IC50 for competition of protein binding to Kinobeads", "details_in_all_cases": "assay detail: Kinobeads competition in P. falciparum blood-stage lysate", "key": {"Q8IEK1": {"target": "Q8IEK1 (UniProt O96935)", "sequence (O96935 whole entry, one chain of several)": "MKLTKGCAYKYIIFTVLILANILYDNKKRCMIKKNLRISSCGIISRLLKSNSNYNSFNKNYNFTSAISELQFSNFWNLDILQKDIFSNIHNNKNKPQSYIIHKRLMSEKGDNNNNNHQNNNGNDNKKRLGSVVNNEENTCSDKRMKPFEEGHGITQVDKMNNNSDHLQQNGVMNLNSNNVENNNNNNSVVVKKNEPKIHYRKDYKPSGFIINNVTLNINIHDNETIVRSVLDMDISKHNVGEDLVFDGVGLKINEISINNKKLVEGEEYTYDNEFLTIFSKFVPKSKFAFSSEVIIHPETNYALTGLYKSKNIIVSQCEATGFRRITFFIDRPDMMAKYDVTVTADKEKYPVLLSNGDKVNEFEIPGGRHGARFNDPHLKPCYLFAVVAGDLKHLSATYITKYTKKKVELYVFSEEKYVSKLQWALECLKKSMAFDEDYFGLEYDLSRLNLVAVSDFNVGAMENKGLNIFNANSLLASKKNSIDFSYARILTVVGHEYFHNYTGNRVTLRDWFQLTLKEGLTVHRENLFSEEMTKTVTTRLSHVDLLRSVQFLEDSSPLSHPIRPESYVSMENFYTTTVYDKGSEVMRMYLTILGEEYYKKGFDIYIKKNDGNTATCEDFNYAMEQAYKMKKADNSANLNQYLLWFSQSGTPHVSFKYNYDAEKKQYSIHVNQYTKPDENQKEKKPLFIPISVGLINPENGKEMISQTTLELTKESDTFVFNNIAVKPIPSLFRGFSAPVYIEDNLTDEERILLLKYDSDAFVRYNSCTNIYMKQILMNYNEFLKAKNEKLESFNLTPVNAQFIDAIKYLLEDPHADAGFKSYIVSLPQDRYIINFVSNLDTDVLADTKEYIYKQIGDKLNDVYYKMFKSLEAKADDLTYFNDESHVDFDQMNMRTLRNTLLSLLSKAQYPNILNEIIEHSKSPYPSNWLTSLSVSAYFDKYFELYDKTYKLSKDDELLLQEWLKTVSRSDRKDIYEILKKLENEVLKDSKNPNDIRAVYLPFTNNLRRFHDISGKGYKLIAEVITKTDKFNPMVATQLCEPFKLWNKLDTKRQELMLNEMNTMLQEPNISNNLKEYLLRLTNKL"}, "UniProt Q8I3W0": {"target": "UniProt Q8I3W0"}, "UniProt Q8IBZ9": {"target": "UniProt Q8IBZ9", "sequence (Q8IBZ9 whole entry)": "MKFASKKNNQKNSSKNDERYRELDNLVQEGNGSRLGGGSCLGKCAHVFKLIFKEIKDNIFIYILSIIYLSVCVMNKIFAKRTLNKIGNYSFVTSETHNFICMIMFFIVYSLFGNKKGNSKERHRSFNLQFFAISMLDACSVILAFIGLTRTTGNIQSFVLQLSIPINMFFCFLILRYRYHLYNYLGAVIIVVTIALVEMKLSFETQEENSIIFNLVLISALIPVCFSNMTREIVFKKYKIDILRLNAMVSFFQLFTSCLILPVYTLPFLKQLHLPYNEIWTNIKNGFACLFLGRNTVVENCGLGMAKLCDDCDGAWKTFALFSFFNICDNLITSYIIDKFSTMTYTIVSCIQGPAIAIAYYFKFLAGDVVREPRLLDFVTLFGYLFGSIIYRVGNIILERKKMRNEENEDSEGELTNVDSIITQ"}, "UniProt Q8I298": {"target": "UniProt Q8I298"}, "UniProt Q8IDF0": {"target": "UniProt Q8IDF0"}, "UniProt Q9U0K8": {"target": "UniProt Q9U0K8"}, "UniProt C0H5I7": {"target": "UniProt C0H5I7"}, "UniProt Q8I445": {"target": "UniProt Q8I445"}, "UniProt P50250": {"target": "UniProt P50250", "sequence (P50250 whole entry)": "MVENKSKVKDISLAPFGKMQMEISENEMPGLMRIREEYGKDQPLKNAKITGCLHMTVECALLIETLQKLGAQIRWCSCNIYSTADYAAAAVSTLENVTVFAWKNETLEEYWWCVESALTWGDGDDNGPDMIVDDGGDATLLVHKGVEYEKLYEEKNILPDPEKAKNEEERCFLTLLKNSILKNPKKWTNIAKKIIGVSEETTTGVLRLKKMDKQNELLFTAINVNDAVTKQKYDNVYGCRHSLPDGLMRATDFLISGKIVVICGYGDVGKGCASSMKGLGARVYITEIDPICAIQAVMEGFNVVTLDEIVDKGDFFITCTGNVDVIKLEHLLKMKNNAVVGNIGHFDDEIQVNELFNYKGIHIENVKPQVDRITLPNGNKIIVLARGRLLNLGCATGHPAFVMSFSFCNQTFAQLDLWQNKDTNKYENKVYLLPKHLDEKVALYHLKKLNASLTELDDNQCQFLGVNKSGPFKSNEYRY"}, "UniProt Q8IM32": {"target": "UniProt Q8IM32"}, "UniProt Q8I1N8": {"target": "UniProt Q8I1N8"}, "UniProt Q8IDD4": {"target": "UniProt Q8IDD4"}, "UniProt Q8IJC6": {"target": "UniProt Q8IJC6"}, "UniProt Q8I5L6": {"target": "UniProt Q8I5L6"}, "UniProt C6KT34": {"target": "UniProt C6KT34"}, "UniProt Q8I6T2": {"target": "UniProt Q8I6T2"}, "UniProt C0H4V4": {"target": "UniProt C0H4V4"}, "UniProt Q8I3T8": {"target": "UniProt Q8I3T8"}, "UniProt Q8IBL5": {"target": "UniProt Q8IBL5"}, "UniProt Q8I388": {"target": "UniProt Q8I388"}, "UniProt C6KTA7": {"target": "UniProt C6KTA7"}, "UniProt Q8IB44": {"target": "UniProt Q8IB44"}, "UniProt Q8I5M2": {"target": "UniProt Q8I5M2"}, "UniProt Q8I442": {"target": "UniProt Q8I442"}, "UniProt Q8II36": {"target": "UniProt Q8II36", "sequence (Q8II36 whole entry)": "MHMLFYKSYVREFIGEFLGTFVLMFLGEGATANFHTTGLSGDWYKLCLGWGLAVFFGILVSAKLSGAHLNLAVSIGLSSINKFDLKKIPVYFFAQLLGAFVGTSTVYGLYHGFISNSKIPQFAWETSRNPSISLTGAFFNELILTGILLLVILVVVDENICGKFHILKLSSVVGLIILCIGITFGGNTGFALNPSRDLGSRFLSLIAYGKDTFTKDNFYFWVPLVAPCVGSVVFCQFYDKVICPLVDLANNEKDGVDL"}, "UniProt Q8IDN6": {"target": "UniProt Q8IDN6"}, "UniProt Q8II71": {"target": "UniProt Q8II71"}, "UniProt O97250": {"target": "UniProt O97250"}, "UniProt C6KSW5": {"target": "UniProt C6KSW5"}, "UniProt Q8III6": {"target": "UniProt Q8III6"}, "UniProt Q8I5S7": {"target": "UniProt Q8I5S7"}, "UniProt Q8I5A6": {"target": "UniProt Q8I5A6"}, "UniProt C6KSV0": {"target": "UniProt C6KSV0"}, "UniProt Q8ILZ3": {"target": "UniProt Q8ILZ3"}, "UniProt Q8IEE9": {"target": "UniProt Q8IEE9"}, "UniProt Q8IKV8": {"target": "UniProt Q8IKV8"}, "UniProt Q8I1Z8": {"target": "UniProt Q8I1Z8"}, "UniProt Q7KQL9": {"target": "UniProt Q7KQL9", "sequence (Q7KQL9 whole entry)": "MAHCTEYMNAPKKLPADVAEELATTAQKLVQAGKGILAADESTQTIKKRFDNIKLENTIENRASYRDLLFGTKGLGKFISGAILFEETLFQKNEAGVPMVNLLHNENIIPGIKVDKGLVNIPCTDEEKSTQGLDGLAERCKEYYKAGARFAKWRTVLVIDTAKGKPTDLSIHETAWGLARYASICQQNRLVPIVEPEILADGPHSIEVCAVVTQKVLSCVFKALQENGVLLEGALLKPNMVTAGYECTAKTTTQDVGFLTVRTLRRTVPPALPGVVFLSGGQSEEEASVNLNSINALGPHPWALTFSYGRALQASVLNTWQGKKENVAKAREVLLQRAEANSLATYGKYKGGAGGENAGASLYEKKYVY"}, "UniProt Q8I3M5": {"target": "UniProt Q8I3M5"}, "UniProt Q8IM27": {"target": "UniProt Q8IM27"}, "UniProt Q8IBN7": {"target": "UniProt Q8IBN7"}, "UniProt Q7KQL5": {"target": "UniProt Q7KQL5", "sequence (Q7KQL5 whole entry)": "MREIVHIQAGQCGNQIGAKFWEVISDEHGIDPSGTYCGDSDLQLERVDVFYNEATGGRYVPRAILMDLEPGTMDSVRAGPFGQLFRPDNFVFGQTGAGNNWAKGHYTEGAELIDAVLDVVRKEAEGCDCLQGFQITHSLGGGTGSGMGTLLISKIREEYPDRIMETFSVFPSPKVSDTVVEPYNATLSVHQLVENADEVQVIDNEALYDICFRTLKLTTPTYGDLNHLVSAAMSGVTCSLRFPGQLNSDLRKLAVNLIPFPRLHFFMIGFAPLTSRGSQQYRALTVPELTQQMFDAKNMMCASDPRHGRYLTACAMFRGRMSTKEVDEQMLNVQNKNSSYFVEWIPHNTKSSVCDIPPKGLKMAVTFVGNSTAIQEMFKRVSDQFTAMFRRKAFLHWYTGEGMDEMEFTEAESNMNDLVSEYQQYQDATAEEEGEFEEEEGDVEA"}, "UniProt Q8IL41": {"target": "UniProt Q8IL41"}, "UniProt Q8I6T3": {"target": "UniProt Q8I6T3"}, "UniProt Q7KQL3": {"target": "UniProt Q7KQL3", "sequence (Q7KQL3 whole entry)": "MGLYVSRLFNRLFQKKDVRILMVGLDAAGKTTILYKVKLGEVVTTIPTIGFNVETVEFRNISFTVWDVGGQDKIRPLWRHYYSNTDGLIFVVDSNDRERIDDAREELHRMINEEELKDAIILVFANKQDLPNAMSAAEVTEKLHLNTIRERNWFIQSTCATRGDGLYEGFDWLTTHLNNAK"}, "UniProt Q8I5H4": {"target": "UniProt Q8I5H4"}, "UniProt Q8IJI4": {"target": "UniProt Q8IJI4"}, "UniProt Q8I2P2": {"target": "UniProt Q8I2P2"}, "UniProt O96258": {"target": "UniProt O96258"}, "UniProt Q8ID33": {"target": "UniProt Q8ID33"}, "UniProt Q8I534": {"target": "UniProt Q8I534"}}, "note": "pIC50: −log10 of the molar value.", "data": [{"molecule": "O=c1[nH]c2ccc(Cl)cc2c(NC2CN3CCC2CC3)c1-c1nc2ccccc2[nH]1", "note": "(stereo unspecified) [CHIR-124];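 also: native unpurified kinases from lysate captured on beads bearing immobilized kinase inhibitors, with bead-bound kinases quantified by mass spectrometry across compound doses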", "values": [{"measurement": "pIC50", "setting": "Q8IEK1", "value": "< 4.70"}, {"measurement": "pIC50", "setting": "UniProt Q8I3W0", "value": "< 4.70"}, {"measurement": "pIC50", "setting": "UniProt Q8IBZ9", "value": "< 4.70"}, {"measurement": "pIC50", "setting": "UniProt Q8I298", "value": "< 4.70"}, {"measurement": "pIC50", "setting": "UniProt Q8IDF0", "value": "< 4.70"}, {"measurement": "pIC50", "setting": "UniProt Q9U0K8", "value": 5.28}, {"measurement": "pIC50", "setting": "UniProt C0H5I7", "value": "< 4.70"}, {"measurement": "pIC50", "setting": "UniProt Q8I445", "value": "< 4.70"}, {"measurement": "pIC50", "setting": "UniProt P50250", "value": "< 4.70"}, {"measurement": "pIC50", "setting": "UniProt Q8IM32", "value": "< 4.70"}, {"measurement": "pIC50", "setting": "UniProt Q8I1N8", "value": "< 4.70"}, {"measurement": "pIC50", "setting": "UniProt Q8IDD4", "value": "< 4.70"}, {"measurement": "pIC50", "setting": "UniProt Q8IJC6", "value": "< 4.70"}, {"measurement": "pIC50", "setting": "UniProt Q8I5L6", "value": "< 4.70"}, {"measurement": "pIC50", "setting": "UniProt C6KT34", "value": "< 4.70"}, {"measurement": "pIC50", "setting": "UniProt Q8I6T2", "value": "< 4.70"}, {"measurement": "pIC50", "setting": "UniProt C0H4V4", "value": "< 4.70"}, {"measurement": "pIC50", "setting": "UniProt Q8I3T8", "value": "< 4.70"}, {"measurement": "pIC50", "setting": "UniProt Q8IBL5", "value": "< 4.70"}, {"measurement": "pIC50", "setting": "UniProt Q8I388", "value": "< 4.70"}, {"measurement": "pIC50", "setting": "UniProt C6KTA7", "value": "< 4.70"}, {"measurement": "pIC50", "setting": "UniProt Q8IB44", "value": "< 4.70"}, {"measurement": "pIC50", "setting": "UniProt Q8I5M2", "value": "< 4.70"}, {"measurement": "pIC50", "setting": "UniProt Q8I442", "value": 5.04}, {"measurement": "pIC50", "setting": "UniProt Q8II36", "value": "< 4.70"}, {"measurement": "pIC50", "setting": "UniProt Q8IDN6", "value": "< 4.70"}, {"measurement": "pIC50", "setting": "UniProt Q8II71", "value": "< 4.70"}, {"measurement": "pIC50", "setting": "UniProt O97250", "value": "< 4.70"}, {"measurement": "pIC50", "setting": "UniProt C6KSW5", "value": "< 4.70"}, {"measurement": "pIC50", "setting": "UniProt Q8III6", "value": "< 4.70"}, {"measurement": "pIC50", "setting": "UniProt Q8I5S7", "value": "< 4.70"}, {"measurement": "pIC50", "setting": "UniProt Q8I5A6", "value": "< 4.70"}, {"measurement": "pIC50", "setting": "UniProt C6KSV0", "value": "< 4.70"}, {"measurement": "pIC50", "setting": "UniProt Q8ILZ3", "value": "< 4.70"}, {"measurement": "pIC50", "setting": "UniProt Q8IEE9", "value": "< 4.70"}, {"measurement": "pIC50", "setting": "UniProt Q8IKV8", "value": "< 4.70"}, {"measurement": "pIC50", "setting": "UniProt Q8I1Z8", "value": "< 4.70"}, {"measurement": "pIC50", "setting": "UniProt Q7KQL9", "value": "< 4.70"}, {"measurement": "pIC50", "setting": "UniProt Q8I3M5", "value": "< 4.70"}, {"measurement": "pIC50", "setting": "UniProt Q8IM27", "value": "< 4.70"}, {"measurement": "pIC50", "setting": "UniProt Q8IBN7", "value": "< 4.70"}, {"measurement": "pIC50", "setting": "UniProt Q7KQL5", "value": "< 4.70"}, {"measurement": "pIC50", "setting": "UniProt Q8IL41", "value": "< 4.70"}, {"measurement": "pIC50", "setting": "UniProt Q8I6T3", "value": "< 4.70"}, {"measurement": "pIC50", "setting": "UniProt Q7KQL3", "value": "< 4.70"}, {"measurement": "pIC50", "setting": "UniProt Q8I5H4", "value": "< 4.70"}, {"measurement": "pIC50", "setting": "UniProt Q8IJI4", "value": "< 4.70"}, {"measurement": "pIC50", "setting": "UniProt Q8I2P2", "value": "< 4.70"}, {"measurement": "pIC50", "setting": "UniProt O96258", "value": "< 4.70"}, {"measurement": "pIC50", "setting": "UniProt Q8ID33", "value": "< 4.70"}, {"measurement": "pIC50", "setting": "UniProt Q8I534", "value": "< 4.70"}]}]}
